Reference: US5607691A, “Compositions and methods for enhanced drug delivery” (priority 1995, dated 1997)
Where a name gives a salt, the structure may show the parent alone.

Legend:
[1] = in vivo; cited from earlier work
[2] = in vivo; cited from earlier work; remark: listed apart in the source
in vitro = in vitro ADME, human; details: for half-life: read-out: Serum Half-life (converted)
Outline: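 Complex from 6 mM ethanol stock added to freshly defrosted human serum at 37° C. Aliquots quenched in 2% zinc sulfate, centrifuged, and supernatant analysed by reversed-phase C8 HPLC for % remaining by peak area. Half-life from slope of ln % remaining vs time.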

[3] = in animals; cited from earlier work
[4] = given intravenously or intramuscularly; cited from earlier work
[5] = man, incomplete and variable, averaging; cited from earlier work
[6] = human or mouse skin; cited from earlier work
[7] = human, serum, Table 5, human serum, 37° C.

Molecule	half-life (in vitro; [7])	also measured
CCn1cc(C(=O)O)c(=O)c2ccc(C)nc21 [Nalidixic acid]	–	absorption [1]: rapidly absorbed from the gastrointestinal tract
C[C@H]1O[C@@H](O[C@H]2[C@@H](O)C[C@H](O[C@H]3[C@@H](O)C[C@H](O[C@H]4CC[C@@]5(C)[C@H](CC[C@@H]6[C@@H]5CC[C@]5(C)[C@@H](C7=CC(=O)OC7)CC[C@]65O)C4)O[C@@H]3C)O[C@@H]2C)C[C@H](O)[C@@H]1O [digitoxin, 3β,5β-3-[(O-2,6-dideoxy-β-D-ribo-hexopyranosyl(1→4)-O-2,6-dideoxy-β-D-ribo-hexopyranosyl-(1→4)-2,6-dideoxy-β-D-ribohexopyranosyl)oxy]-14-hydroxycard-20(22)-enolide]	–	absorption [1]: completely absorbed
O=c1[nH]cc(F)c(=O)[nH]1 [fluorouracil, 5-fluoro-2,4 (1H,3H)-pyrimidinedione]	–	passage across blood-brain barrier and placenta [2]: diffuses readily across the blood-brain barrier
CCOC(=O)Cc1c(C)n(C(=O)c2ccc(Cl)cc2)c2ccc(OC)cc12 [indomethacin ethyl ester, reference compound]	> 5760 min	–
COc1ccc2c(c1)c(CC(=O)COC(=O)OCC[N+](C)(C)C)c(C)n2C(=O)c1ccc(Cl)cc1 [indomethacin hydroxymethyl ketone choline iodide carbonate]	1.08 min	–
COc1ccc2c(c1)c(CC(=O)CO)c(C)n2C(=O)c1ccc(Cl)cc1 [indomethacin hydroxymethyl ketone]	900 min	–
COC(=O)Cc1c(C)n(C(=O)c2ccc(Cl)cc2)c2ccc(OC)cc12 [indomethacin methyl ester, reference compound]	8640 min	–
O=C1Nc2ccc(Cl)cc2C(c2ccccc2Cl)=NC1O[C@@H]1O[C@H](C(=O)O)[C@@H](O)[C@H](O)[C@H]1O (stereo partly drawn) [lorazepam glucuronide]	–	central nervous system activity [3]: no demonstrable central nervous system activity
O=C1Nc2ccc(Cl)cc2C(c2ccccc2Cl)=NC1O (stereo not drawn) [lorazepam, 7-chloro-5-(o-chlorophenyl)-1,3-dihydro-3-hydroxy-2H-1,4-benzodiazepin-2-one]	–	mean half-life [4]: about 16 hours
CC(=O)O[C@H](CC(=O)OC1N=C(c2ccccc2Cl)c2cc(Cl)ccc2NC1=O)C[N+](C)(C)C (stereo partly drawn) [lorazepam-3-(O-acetylcarnitine) ester chloride salt]	312 min	–
C[N+](C)(C)CCOC(=O)OC1N=C(c2ccccc2Cl)c2cc(Cl)ccc2NC1=O (stereo not drawn) [lorazepam-3-choline carbonate, chloride salt]	132 min	–
COc1ccc2c(c1)c(CCNC(C)=O)cn2C(=O)OCC[N+](C)(C)C [melatonin-1-choline carbamate, bromide salt]	900 min	–
O.Sc1ncnc2nc[nH]c12 [mercaptopurine, 1,7-dihydro-6H-purine-6-thione monohydrate]	–	absorption of an oral dose [5]: approximately 50 % of the administered dose
CN(Cc1cnc2nc(N)nc(N)c2n1)c1ccc(C(=O)N[C@@H](CCC(=O)OCOC(=O)CCC[N+](C)(C)C)C(=O)OCOC(=O)CCC[N+](C)(C)C)cc1 [methotrexate-bis-(4-trimethylammoniobutyroyloxymethyl ester), diiodide salt]	108 min	–
CN(Cc1cnc2nc(N)nc(N)c2n1)c1ccc(C(=O)N[C@@H](CCC(=O)OCC[N+](C)(C)C)C(=O)OCC[N+](C)(C)C)cc1 [methotrexate-bis-choline ester, dibromide salt]	840 min	–
CCn1cc(C(=O)OCOC(=O)CCCCC[N+](C)(C)C)c(=O)c2ccc(C)nc21 [nalidixic acid 6-(N,N,N-trimethylamino)-hexanoyloxymethyl ester, iodide salt]	4.8 min	–
CCn1cc(C(=O)OCC[N+](C)(C)C)c(=O)c2ccc(C)nc21 [nalidixic acid, choline ester, bromide salt]	66 min	–
CCn1cc(C(=O)OCOC(=O)OCC[N+](C)(C)C)c(=O)c2ccc(C)nc21 [nalidixic acid, cholinecarbonato methyl ester, iodide salt]	1.27 min	–
O=C(OCCc1ccc([N+](=O)[O-])cc1)c1cccnc1 [p-nitrophenylethyl alcohol nicotinate ester]	0.433 min	–
C[n+]1cccc(C(=O)OCCc2ccc([N+](=O)[O-])cc2)c1 [p-nitrophenylethyl alcohol trigonelline ester]	28 min	–

Molecule	half-life (in vitro; [7])	also measured
CC(=O)[C@H]1CC[C@H]2[C@@H]3CC=C4C=C(OC(=O)CCC[N+](C)(C)C)CC[C@]4(C)[C@H]3CC[C@]12C [progesterone-3-(4-N,N,N-trimethylammoniobutyrate) enol ester, bromide salt]	180 min	–
CC(=O)[C@H]1CC[C@H]2[C@@H]3CC=C4C=C(OC(=O)C[N+](C)(C)C)CC[C@]4(C)[C@H]3CC[C@]12C.[Br-] [progesterone-3-betainoyl enol ester, bromide salt]	–	Serum Half-life (in vitro; human, serum): 1.6 min
CC(=O)O[C@H](CC(=O)OC[C@H](NC(=O)OCc1ccccc1)C(=O)OCc1ccccc1)C[N+](C)(C)C [serine, L-isomer, HO-(O-acetyl-L-carnitine ester) N-CBZ, benzyl ester]	21 min	–
C[n+]1cccc(C(=O)OC[C@H](NC(=O)OCc2ccccc2)C(=O)OCc2ccccc2)c1 [serine, L-isomer, HO-trigonellate ester, N-CBZ, benzyl ester]	5 min	–
C[C@]12CC[C@H]3[C@@H](CCC4=CC(=O)CC[C@@]43C)[C@@H]1CC[C@@H]2OC(=O)OCOC(=O)CCCCC[N+](C)(C)C [testosterone-17-(6-trimethylammoniohexanoyloxymethyl) carbonate, bromide salt]	19 min	–
CCOC(=O)C[C@H](C[N+](C)(C)C)OC(=O)O[C@H]1CC[C@H]2[C@@H]3CCC4=CC(=O)CC[C@]4(C)[C@H]3CC[C@]12C [testosterone-17-(L-carnitineethyl ester) carbonate, iodide salt]	49 min	–
CC(=O)O[C@H](CC(=O)O[C@H]1CC[C@H]2[C@@H]3CCC4=CC(=O)CC[C@]4(C)[C@H]3CC[C@]12C)C[N+](C)(C)C [testosterone-17-(O-acetyl-L-carnitinate), chloride salt]	5760 min	–
CCCCCCCCCCCCCCCC(=O)O[C@H](CC(=O)O[C@H]1CC[C@H]2[C@@H]3CCC4=CC(=O)CC[C@]4(C)[C@H]3CC[C@]12C)C[N+](C)(C)C [testosterone-17-(O-palmityl-L-carnitinate), chloride salt]	7060 min	–
C[C@]12CC[C@H]3[C@@H](CCC4=CC(=O)CC[C@@]43C)[C@@H]1CC[C@@H]2OC(=O)OCOC(=O)C[N+](C)(C)C [testosterone-17-betainoyloxymethyl carbonate, iodide salt]	0.633 min	–
C[C@]12CC[C@H]3[C@@H](CCC4=CC(=O)CC[C@@]43C)[C@@H]1CC[C@@H]2OC(=O)OCOC(=O)COC(=O)C[N+](C)(C)C [testosterone-17-betainoyloxymethylcarbonyloxymethyl carbonate, iodide salt]	8.5 min	–
C[C@]12CC[C@H]3[C@@H](CCC4=CC(=O)CC[C@@]43C)[C@@H]1CC[C@@H]2OC(=O)OCC[N+](C)(C)C [testosterone-17-choline carbonate, bromide salt]	29 min	–
Cn1c(=O)c2c(ncn2COC(=O)C[N+](C)(C)C)n(C)c1=O [theophylline-7-(N,N,N,-trimethylglycyloxymethyl), iodide salt]	0.5 min	–
CN(C)CC(=O)OCn1cnc2c1c(=O)n(C)c(=O)n2C [theophylline-7-(N,N-dimethylglycyloxymethyl]	1680 min	–
Cn1c(=O)c2c(ncn2COC(=O)CCC[N+](C)(C)C)n(C)c1=O [theophylline-7-[4-(N,N,N-trimethylamino)-butyroyloxymethyl], bromide salt]	144 min	–
CC(=O)O[C@H](CC(=O)O[C@H](C)[C@H](NC(=O)OCc1ccccc1)C(=O)OCc1ccccc1)C[N+](C)(C)C [threonine, L-isomer, HO-(O-acetyl-L-carnitine ester), N-CBZ, benzyl ester]	40 min	–
C[C@@H](OC(=O)c1ccc[n+](C)c1)[C@H](NC(=O)OCc1ccccc1)C(=O)OCc1ccccc1 [threonine, L-isomer, HO-trigonellate ester, N-CBZ benzyl ester]	40 min	–
Cytochrome c	–	iontophoretic transport across skin [6]: can be iontophoretically transported readily across human or mouse skin
digitoxigenin-3-(O-acetyl-D,L-carnitine) ester, (D isomer), chloride salt	–	Serum Half-life (in vitro; Table 5, human serum, 37° C.): ~ 50 min
digoxin-12-{N-[6-(N',N',N'-trimethylamino)hexanoyloxymethyl]glycinoyloxymethyl} carbonate-3"',4"'-cyclic carbonate, bromide salt	–	Serum Half-life (in vitro; Table 5, human serum, 37° C.): 7 min
